Experiments:
[1] = test system: Age-Impaired (AI) Long-Evans rats; test: Morris Water Maze (MWM) retention trial, spatial memory of aged-impaired rats; assay type: in vivo, rat; settings: retention trial 24 hours after last training trial
Experimental: FIG. 2 depicts the effects of administering levetiracetam on the spatial memory retention of six aged-impaired rats (AI) in a Morris Water Maze (MWM) test. Three treatment conditions were employed: vehicle control, levetiracetam (5 mg/kg/day) and levetiracetam (10 mg/kg/day). The AI rats were trained for two consecutive days, with a one-time treatment prior to the training trials per day. 24 hours later, the AI rats were tested. The time the AI rats, 24 hours after treatment with the different conditions and two days of training, spent swimming in the target quadrant or the target annulus in a memory retention trial is used as a measure of spatial memory retention. The target quadrant refers to the quadrant of the maze (which is a circular pool) where the escape platform is placed during the training trials. The target annulus refers to the exact location of the escape platform during the training trials.
The MWM apparatus consists of a large, circular pool (diameter 1.83 m; height, 0.58 m) filled with water (27° C.) that is made opaque through the addition of non-toxic pigment or some other substance. In the typical “hidden platform” version of the test, rats are trained to find a camouflaged white escape platform (height, 34.5 cm) that is positioned in the center of one quadrant of the maze about 1.0 cm below the water surface. This platform can be retracted to the bottom of the tank or raised to its normal position from outside the maze during behavioral testing. The location of the platform remains constant from trial to trial. […] The behavior of a rat in the pool is recorded by a camera that is suspended 2.5 m above the center of the pool. […]
The MWM protocol is optimized for sensitivity to the effects of aging on cognition and for measures of reliable individual differences within the aged population of out-bred Long-Evans rats (Gallagher et al. Behav. Neurosci. 107:618-626, (1993)). […] At the completion of the protocol using the hidden platform, rats are assessed for cue learning using the visible platform. […]

aged-impaired (AI) rats = test: Radial Arm Maze (RAM) task with one-hour delay, spatial memory retention of aged-impaired rats; assay type: in vivo, rat; settings: 30-40 minutes before trial, ten AI rats
Experimental: FIG. 3 depicts the effects of administering levetiracetam on the spatial memory retention of ten aged-impaired rats (AI) in an eight-arm Radial Arm Maze (RAM) test. Six treatment conditions were employed: vehicle control, levetiracetam (1.25 mg/kg/day), levetiracetam (2.5 mg/kg/day), levetiracetam (5 mg/kg/day), levetiracetam (10 mg/kg/day) and levetiracetam (20 mg/kg/day). In the RAM task used, there was a one-hour delay between presentation of a subset of arms (5 arms available and 3 arms blocked) and completion of the eight-arm win-shift task (eight arms available). Rats were pre-treated 30-40 minutes before daily trials with a one-time drug/control treatment. The number of errors made by the rats after the delay was used as a measure of spatial memory retention. Errors were defined as instances when rats entered an arm from which food had already been retrieved in the pre-delay component of the trial or when rats re-visited an arm in the post-delay session that had already been visited. […]
The effects of levetiracetam on the spatial memory retention of aged-impaired (AI) rats were assessed in a Radial Arm Maze (RAM) behavioral task using vehicle control and five different dosage levels of levetiracetam (1.25 mg/kg/day, 2.5 mg/kg/day, 5 mg/kg/day, 10 mg/kg/day and 20 mg/kg/day). […]

[2] = test system: memory-impaired aged rats; settings: chronic subcutaneous administration, cited from earlier work
[3] = 100 mg/kg/day, chronic subcutaneous administration; cited from earlier work

Compound | time spent in the target quadrant, performance compared with vehicle ([1]; 5 mg/kg/day i.p.) | time spent in the target annulus ([1]; 10 mg/kg/day i.p.) | time spent in the target quadrant ([1]; 10 mg/kg/day i.p., vehicle approximately 25%) | average no. of errors ± standard error of the mean (SEM) (aged-impaired (AI) rats; 5 mg/kg/day i.p., vehicle 2.00±0.42, p=0.057) | average no. of errors ± SEM (aged-impaired (AI) rats; 10 mg/kg/day i.p., vehicle 2.00±0.42, p=0.042) | treatment of age-related cognitive impairment ([2]; 50 mg/kg/day) | performance in a memory test ([2]; 100 mg/kg/day) | blood total valproate level [3]
CC[C@@H](C(N)=O)N1CCCC1=O [levetiracetam, (2S)-2-(2-oxopyrrolidin-1-yl) butanamide] | did not significantly improve | effectivness of the 10 mg/kg/day levetiracetam treatment was also seen | approximately 35 % of total swimming time | 0.75±0.32 | 0.80±0.27 |  |  | 
CCCC(CCC)C(=O)O [sodium valproate, 2-propylpentanoate] |  |  |  |  |  | not effective | significantly improved | 10 μg/ml plasma

Source: US8604075B2, “Methods and compositions for improving cognitive function” (The Johns Hopkins University, priority 2008, dated 2013)
